Measured values published in patent US7754249B2, “Haircare compositions and methods” (The Boots Company PLC, priority 2004, dated 2010).

System: interleukin-2 (IL-2) production
Experiment: IL-2 inhibition assay in pha-stimulated human lymphocytes
Assay type: cell-based
Settings: preliminary trial; cultured human lymphocytes stimulated with pha, with or without CsA
Description: The potential for the extracts to reduce/prevent hair loss or promote hair growth were assessed by an IL-2 inhibition assay. IL-2 has been associated with inhibition of hair growth and promotion of hair loss.
Human lymphocytes were extracted from blood and cultured using standard techniques. A preliminary trial was carried out to ensure that test cells were able to produce IL-2 when stimulated with phytohaemogluttinin (pha), a known IL-2 promoter, and also for this stimulation to be inhibited using Cyclosporin A (CsA) which is a known inhibitor of IL-2 production.
Following this confirmation of the capability of the cells to produce IL-2, studies using the extracts were carried out using the same methodology, but with the extracts replacing CsA. Results are shown in Table 2 and expressed as % IL-2 inhibition compared to control.
Control=50% denatured ethanol, 50% propylene glycol.
All materials were used at 1 in 1000 dilution.

phytohaemogluttinin [pha]
IL-2: >1000 pg/mL
